The values below come from patent US20110111986A1, “NOVEL SACCHARIDE PRIMER AND USE THEREOF” (KEIO UNIVERSITY, priority 2007, published 2011).

This assay deals with B16 cells. Description: Sugar chain extension reaction in B16 cells with saccharide primer (HPTLC, densitometer). To be noted: for extended sugar chain product detected by HPTLC: B16 cells 2.0×10^6 cells/plate, 48 hours, medium fraction and cell fraction, resorcinol staining. The format is cell-based, mouse. The procedure: When a saccharide primer is administered to the sugar chain-synthesizing cell described above, this cell reacts with the saccharide primer, and as a result, a desired sugar chain can be obtained. Specifically, a saccharide primer is administered at a concentration of 50 μM to a medium in which sugar chain-synthesizing cells (for example, B16 cells) are cultured, and the mixture is incubated at 37° C. for about 2 days. During that period, the saccharide primer is introduced into the cells, a sugar is added to the saccharide primer, and various types of sugar chains are produced in the culture liquid. The sugar chains are recovered from the culture liquid by a method known to a person skilled in the art, for example, a lectin column or a commercially available sugar chain purification kit.
First, the saccharide primer Lac-C12 and the saccharide primer Lac-C13:1(2) were added to each medium in which B16 cells (mouse melanoma cells strongly expressing GM3) (Japan Health Science Foundation, Health Science Research Resources Bank) were plated at a concentration of 2.0×10^6 cells/plate, and then incubated for 48 hours. Then, the medium and the cells were separated by centrifugation, and each of collected substances was analyzed with HPTLC.
With regard to the saccharide primer Lac-C12 and the saccharide primer Lac-C13:1(2), their sugar chain extension efficiencies in B16 cells and amounts of the saccharide primers taken into the cells were compared by a quantitative analysis with a densitometer.

`CCCCCCCCCCCCO[C@@H]1OC(CO)[C@@H](O[C@@H]2OC(CO)[C@H](O)[C@H](O)C2O)[C@H](O)C1O` (stereo partly drawn) [Lac-C12, reference compound]: the “extended sugar chain product detected by HPTLC” value was “a product X′ was confirmed in both the medium fraction and the cell fraction”.

For `CCCCCCCCCC/C=C/CO[C@@H]1OC(CO)[C@@H](O[C@@H]2OC(CO)[C@H](O)C(O)C2O)C(O)C1O` (stereo partly drawn) [Lac-C13:1(2), 1-O-(trans-2-tridecenyl)-4-O-(β-D-galactopyranosyl)-β-D-glucopyranoside], the “extended sugar chain product detected by HPTLC” value was “a product X was confirmed in both the medium fraction and the cell fraction”. For the same molecule, the “sugar chain extension efficiency (amounts of extended sugar chain products)” value (B16 cells, medium fraction, 48 hours incubation, densitometer quantitation, compared with Lac-C12, listed as Lac-O-C13:1(2)) was “equal to or greater than those obtained by using a conventional primer”.
